Measured values: patent publication US12077534B2, “Aza-heterobicyclic inhibitors of MAT2A and methods of use for treating cancer” (Les Laboratoires Servier SAS, priority 2018, dated 2024)

Assays:
HCT116 MTAP+/+ = experiment: Inhibition of cellular proliferation (Cell Titer Glo), HCT116 MTAP+/+; format: cell-based; conditions: Homo sapiens, HCT-116, 96 h, 4 days, read-out: 4 Day Relative Growth Inhibition (MTAP +/+)
Procedure: (§1) Test compound impact on cancer cell growth was assessed by treating cancer cells with compound for 4 days and then measuring proliferation using an ATP-based cell proliferation readout (Cell Titer Glo, Promega Corporation).
(§2) In a typical assay an isogenic pair of HCT116 human colon carcinoma cell lines which vary only in MTAP deletion status (HCT116 MTAP+/+ and HCT116 MTAP−/−) were plated in 96-well dishes at appropriate cell density. Following 24 hours, cells were then treated with the candidate MAT2A inhibitor. Prior to addition to cells, the compound was first serially diluted in 100% DMSO, typically as a 3-fold serial dilution starting at 500× top dose with 10 dose points including DMSO only control. Compound was then transferred to a working stock plate in cell culture media by adding 5 μL of compound in DMSO to 495 μL of cell culture media. This working stock was then added to cells via a further 5-fold dilution, by adding 25 μL of working stock to 100 μL of cells in culture media. Following compound addition, cells were incubated at 37° C./5% CO2 for 4 days.
(§3) To measure inhibition of cellular proliferation, cells were allowed to equilibrate to room temperature for 30 minutes, and were then treated with 125 μL of Cell Titer Glo reagent. The plate was then covered with aluminum foil and shaken for 15 minutes to ensure complete mixing and full cell lysis. Luminescent signal was then measured using a plate-based luminometer Veritas version 1.9.2 using ATP standard curve to confirm assay reproducibility from run to run. This luminescence measure was converted to a proliferation index by subtracting from each data point the ATP luminescence signal measured from a bank (no cells) well and dividing by the ATP luminescence signal measured in 0.2% DMSO control well adjusted for signal in blank well. Compound activity was then represented as a percentage change in proliferation relative to a within-plate DMSO control against log 10 of compound concentration in molar (M) units.

[1] = test system: MAT2A activity (SAM) in HCT116 cells with deleted MTAP gene; experiment: Cellular assay of target engagement (SAM) by LC-MS/MS; format: cell-based; conditions: Homo sapiens, HCT-116; HCT116 MTAP −/−, 72 hrs; read-out: Cell 72 h SAM Inhibition (MTAP −/−)
Procedure: Measurement of MAT2A activity in cells was made by direct quantitation of the abundance of the product of its enzymatic activity, SAM. Cancer cells were treated with candidate MAT2A inhibitors for a suitable incubation period, and the cells were then lysed using a reagent which quenched any further enzyme activity. Soluble metabolites including SAM were collected and SAM itself was directly measured from the lysate using quantitative LC-MS/MS.
A typical assay was performed using an HCT116 human colon carcinoma cell line which was genetically engineered to delete the MTAP gene (commercially available from Horizon Discovery). This cell line was utilized because it was determined that loss of the MTAP gene predicts sensitivity to MAT2A inhibitors. Cells were plated in 96-well dishes at appropriate cell density. Following 24 hours, cells were then treated with the candidate MAT2A inhibitor. Prior to addition to cells, the compound was first serially diluted in 100% DMSO, typically as a 3-fold serial dilution starting at 500× top dose with 10 dose points including DMSO only control. Compound was then transferred to a working stock plate in cell culture media by adding 5 μL of compound in DMSO to 495 μL of cell culture media. This working stock was then added to cells via a further 5-fold dilution, by adding 25 μL of working stock to 100 μL of cells in culture media. Following compound addition, cells were incubated at 37° C./5% CO2 for 72 hrs.
To quantitate SAM levels following compound treatment, cells were gently washed once in ammonium carbonate buffer (75 mM at pH 7.4), placed on dry ice, and lysed with metabolite extraction buffer (80% cold methanol and 20% water (v/v) with acetic acid at 1M final concentration with 200 ng/mL deuterated d3-SAM as internal control). Following centrifugation at 4° C. at 3,200 rpm for 30 minutes, the supernatant was collected and stored at −80° C. until analysis by Liquid Chromatography with tandem Mass Spectrometry (LC-MS/MS). LC-MS/MS analysis was performed using an API6500 Mass Spectrometer (Sciex, Framingham, MA, USA) operating in positive ion spray mode and equipped with a Waters UPLC Acquity (Waters, Milford, MA, USA) BEH Amide column. Multiple Reaction Monitoring data was acquired for SAM and the d3-SAM standard, using a mass transition pair at m/z 399.2→250.1 and 402.2→250.1, respectively. In a typical LC-MS/MS analysis, the initial flow rate was 0.5 ml/min of 25% mobile phase A (acetonitrile and water at 5:95 (v/v) with 1% formic acid and 10 mM ammonium acetate) and 75% mobile phase B (acetonitrile and water at 95:5 (v/v) with 1% formic acid and 10 mM ammonium acetate), 0.2-0.5 minutes with 75%-35% mobile phase B, 25%-65% mobile phase A, at 0.5 min 65% mobile phase A and 35% mobile phase B, 1.0-1.1 minutes with 35%-75% mobile phase B, 65%-25% mobile phase A, at 1.1 min 25% mobile phase A and 75% mobile phase B with a total run time of 1.5 minutes.

HCT116 MTAP−/− = experiment: Inhibition of cellular proliferation (Cell Titer Glo), HCT116 MTAP-/-; format: cell-based; conditions: Homo sapiens, HCT-116, 96 h, 4 days, read-out: 4 Day Relative Growth Inhibition (MTAP −/−)
Procedure: as §1, §2, §3

MAT2A homodimer = molecular target: T1, MAT2A homodimer (Homo sapiens, UniProt P31153); experiment: MAT2A biochemical assay (phosphate release, PiColorLock Gold); conditions: recombinant MAT2A homodimer, 60 min pre-incubation, 25° C.; read-out: Enzyme Inhibition
T1 construct: inferred from Ni sepharose purification and imidazole elution; made in house; host or cells: SF9 insect cells, recombinant baculovirus (Bac to Bac, pFASTBAC1)
T1 sequence (P31153 whole entry): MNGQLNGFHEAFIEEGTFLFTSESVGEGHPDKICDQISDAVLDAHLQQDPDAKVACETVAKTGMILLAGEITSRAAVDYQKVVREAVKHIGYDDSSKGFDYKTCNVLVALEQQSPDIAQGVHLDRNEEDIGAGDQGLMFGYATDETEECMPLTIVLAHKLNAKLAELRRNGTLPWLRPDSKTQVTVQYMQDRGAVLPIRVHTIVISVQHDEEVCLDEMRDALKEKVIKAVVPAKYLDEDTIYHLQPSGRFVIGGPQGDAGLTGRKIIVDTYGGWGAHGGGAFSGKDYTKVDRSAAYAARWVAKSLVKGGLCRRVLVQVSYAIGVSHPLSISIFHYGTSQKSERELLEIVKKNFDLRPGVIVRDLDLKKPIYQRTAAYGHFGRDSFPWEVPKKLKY
Procedure: Mat2A protein was expressed by recombinant baculovirus in SF9 infected cells using the Bac to Bac system cloned into the pFASTBAC1 vector (Invitrogen, Carlsbad, CA). Recombinant MAT2A was isolated from the cell lysate of 150 g of infected cells using HP Ni sepharose column chromatography. Recombinant MAT2A homodimer was eluted with 250 and 500 mM imidazole, and fractions containing MAT2A were identified by sodium dodecyl sulfate polyacrylamide gel electrophoresis and pooled.
For determination of the inhibitory potency of compounds against the MAT2A homodimer, protein was diluted to 4 μg/mL in assay buffer (50 mM Tris, pH 8.0, 50 mM KCl, 15 mM MgCl2, 0.3 mM EDTA, 0.005% [w/v] bovine serum albumin [BSA]). Test compound was prepared in 100% dimethyl sulfoxide (DMSO) at 50× the desired final concentration. A 1 μL volume of compound dilution was added to 40 μL of enzyme dilution and the mixture was allowed to equilibrate for 60 minutes at 25° C. The enzymatic assay was initiated by the addition of 10 μL of substrate mix (500 μM ATP, pH 7.0, 400 μM L-methionine in 1× assay buffer), and the mixture was incubated for a further 60 minutes at 25° C. The reaction was halted and the liberated phosphate released by the enzyme in stoichiometric amounts by the production of S-adenosyl methionine (SAM) was measured using the PiColorLock Gold kit (Innova Biosciences, UK). Absolute product amounts were determined by comparison to a standard curve of potassium phosphate buffer, pH 8.0.

Row | Structure (SMILES) | IC50 (HCT116 MTAP+/+) | IC50 [1] | IC50 (HCT116 MTAP−/−) | IC50 (MAT2A homodimer)
1 | Cn1cc2cc(-n3nc4ccc(OCC5CC5)nc4c(-c4ccc(Cl)cc4)c3=O)ccc2n1 [Example 101, 4-(4-chlorophenyl)-6-(cyclopropylmethoxy)-2-(2-methyl-2H-indazol-5-yl)pyrido[3,2-c]pyridazin-3(2H)-one] | ≥ 1 µM | < 0.1 µM | 0.1 to 1 µM | < 0.1 µM
2 | CCOc1ccc2nn(-c3ccc4nn(C)cc4c3)c(=O)c(-c3ccc(OC(F)(F)F)cc3)c2n1 [Example 104] | ≥ 1 µM | 0.1 to 1 µM | 0.1 to 1 µM | < 0.1 µM
3 | COc1ccc(-n2nc3ccc(OCC(F)F)nc3c(-c3ccc(OC(F)F)cc3)c2=O)cc1 [Example 105] | ≥ 1 µM | 0.1 to 1 µM | 0.1 to 1 µM | < 0.1 µM
4 | O=c1c(-c2ccc(OC(F)F)cc2)c2nc(OCC(F)F)ccc2nn1-c1cncs1 [Example 186] | – | – | – | 0.1 to 1 µM
5 | Cn1cc2cc(-n3nc4ccc(OCC(F)F)nc4c(C#C[Si](C)(C)C)c3=O)ccc2n1 [Example 213, 6-(2,2-difluoroethoxy)-2-(2-methyl-2H-indazol-5-yl)-4-((trimethylsilyl)ethynyl)pyrido[3,2-c]pyridazin-3(2H)-one] | ≥ 1 µM | – | ≥ 1 µM | 0.1 to 1 µM
6 | O=C1CCC(n2nc3ccc(OCC(F)F)nc3c(-c3ccc(OC(F)F)cc3)c2=O)CC1 [Example 216, 6-(2,2-difluoroethoxy)-4-(4-(difluoromethoxy)phenyl)-2-(4-oxocyclohexyl)pyrido[3,2-c]pyridazin-3(2H)-one] | – | – | – | 0.1 to 1 µM
7 | COc1ccc(-c2c(=O)n(-c3ccc4nn(C)cc4c3)nc3ccc(NC4CC4)nc23)cn1 [Example 308] | – | – | – | < 0.1 µM
8 | [2H]C([2H])([2H])c1ccc(-c2c(=O)n(-c3ccc4nn(C)cc4c3)nc3ccc(NCC)nc23)cn1 [Example 320] | – | – | – | < 0.1 µM
9 | [2H]C([2H])([2H])C([2H])([2H])Nc1ccc2nn(-c3ccc4nn(C)cc4c3)c(=O)c(-c3ccc(C(F)F)nc3)c2n1 [Example 324] | – | – | – | < 0.1 µM
10 | [2H]C([2H])([2H])n1cc2cc(-n3nc4ccc(NC([2H])([2H])C([2H])([2H])[2H])nc4c(-c4ccc(C)nc4)c3=O)ccc2n1 [Example 325] | – | – | – | < 0.1 µM
11 | CCNc1ccc2nn(-c3ccc(=O)n(C)c3)c(=O)c(-c3ccc(C(F)F)nc3)c2n1 [Example 326] | – | – | – | < 0.1 µM
12 | Cn1cc(-n2nc3ccc(NCC(F)(F)F)nc3c(-c3ccc(C(F)F)nc3)c2=O)ccc1=O [Example 329] | – | – | – | 0.1 to 1 µM
13 | [2H]C([2H])([2H])n1cc2cc(-n3nc4ccc(NCC)nc4c(-c4ccc(C)nc4)c3=O)ccc2n1 [Example 330] | – | – | – | < 0.1 µM
14 | CCNc1ccc2nn(-c3ccc4nn(C)cc4c3)c(=O)c(-c3ccc4[nH]cc(C#N)c4c3)c2n1 [Example 332, 5-(6-(ethylamino)-2-(2-methyl-2H-indazol-5-yl)-3-oxo-2,3-dihydropyrido[3,2-c]pyridazin-4-yl)-1H-indole-3-carbonitrile] | – | – | – | < 0.1 µM

Results, then the compound that gave them:

Row | IC50 (HCT116 MTAP+/+) | IC50 [1] | IC50 (HCT116 MTAP−/−) | IC50 (MAT2A homodimer) | Structure (SMILES)
15 | ≥ 1 µM | < 0.1 µM | < 0.1 µM | < 0.1 µM | CCNc1ccc2nn(-c3ccc4nn(C)cc4c3)c(=O)c(-c3ccc(Cl)cc3)c2n1 [Example 103, 4-(4-chlorophenyl)-6-(ethylamino)-2-(2-methyl-2H-indazol-5-yl)pyrido[3,2-c]pyridazin-3(2H)-one]
16 | 0.1 to 1 µM | < 0.1 µM | < 0.1 µM | < 0.1 µM | COc1ccc(-c2c(=O)n(-c3ccc4nn(C)cc4c3)nc3ccc(OCC(F)F)nc23)cc1 [Example 106]
17 | – | – | – | 0.1 to 1 µM | COc1ccc(-n2nc3ccc(OCC(F)(F)F)nc3c(-c3ccc(Cl)cc3)c2=O)cc1 [Example 118]
18 | – | – | – | 0.1 to 1 µM | Cn1cc2cc(-n3nc4ccc(N5CCC5)nc4c(-c4ccc(OC(F)F)cc4)c3=O)ccc2n1 [Example 164]
19 | – | – | – | 1 to 10 µM | N#Cc1ccc(-n2nc3ccc(OCC(F)F)nc3c(-c3ccc(OC(F)F)cc3)c2=O)cc1 [Example 181]
20 | – | – | – | 0.1 to 1 µM | CNc1ccc(-n2nc3ccc(OCC(F)F)nc3c(-c3ccc(OC(F)F)cc3)c2=O)cc1 [Example 185]
21 | – | – | – | 1 to 10 µM | O=c1c(-c2ccc(OC(F)F)cc2)c2nc(OCC(F)F)ccc2nn1-c1ccc(Cl)cc1 [Example 190]
22 | – | – | – | < 0.1 µM | CN(C)c1ccc2nn(-c3ccc4nn(C)c(N(C)C)c4c3)c(=O)c(-c3ccc(OC(F)F)cc3)c2n1 [Example 204, 4-(4-(difluoromethoxy)phenyl)-6-(dimethylamino)-2-(3-(dimethylamino)-2-methyl-2H-indazol-5-yl)pyrido[3,2-c]pyridazin-3(2H)-one]
23 | – | – | – | < 0.1 µM | Cc1ccc(-c2c(=O)n(-c3ccc4nn(C)cc4c3)nc3ccc(NC4CC4)nc23)cn1 [Example 306]
24 | – | – | – | < 0.1 µM | CCNc1ccc2nn(-c3ccc4ncsc4c3)c(=O)c(-c3ccc(C4CC4)cc3)c2n1 [Example 311]
25 | – | – | – | < 0.1 µM | CCNc1ccc2nn(-c3ccc4nn(C)cc4c3)c(=O)c(-c3ccc(C4CC4)cc3)c2n1 [Example 312]
26 | – | – | – | < 0.1 µM | Cn1cc2cc(-n3nc4ccc(OCC5CC5(F)F)nc4c(-c4ccc(C5CC5)nc4)c3=O)ccc2n1 (stereo not drawn) [Example 314]
27 | – | – | – | < 0.1 µM | [2H]C([2H])([2H])Oc1ccc(-n2nc3ccc(NCC(F)(F)F)nc3c(-c3ccc(C(F)F)nc3)c2=O)cc1 [Example 322, 4-(6-(difluoromethyl)pyridin-3-yl)-2-(4-(methoxy-d3)phenyl)-6-((2,2,2-trifluoroethyl)amino)pyrido[3,2-c]pyridazin-3(2H)-one]
28 | – | – | – | 0.1 to 1 µM | Cn1cc(-n2nc3ccc(OCC(F)F)nc3c(-c3ccc(C(F)F)nc3)c2=O)ccc1=O [Example 328]
